Values quoted from earlier work as cited in patent US20220409829A1, “ANTIVIRAL THAT DESTROYS DNA AND/OR RNA OF VIRUSES AND VIROIDS” (priority 2021, published 2022).

Assays:
[1] = within 10 minutes; inhalation; FIG. 4
[2] = FIG. 5
[3] = FIG. 5; remark: listed apart in the source

In the case of `[N-]=[N+]=O` [nitrous oxide], the “equilibration (Fa/Fi)” value [1] is given as “approximately 90%”, the minimum alveolar concentration [2] is given as 105% and the blood/gas partition coefficient [3] is given as 0.46. The agranulocytosis (bone marrow; after 4 days of exposure) was “apparent” and the “Megaloblastic changes in bone marrow” value (bone marrow; exposure to anesthetic concentrations for 24 hours) was “observed”.
